Experimental data from the Deep4Chem optical property database.

Assay: photoluminescence quantum yield (fraction); solvent given as SMILES
[1] = in O=P(c1ccccc1)(c1ccccc1)c1ccccc1Oc1ccccc1P(=O)(c1ccccc1)c1ccccc1

## CCCCC(CC)CN1C(=O)c2cc(Oc3ccc(OC)cc3)c3c4c(Cl)cc5c6c(cc(Cl)c(c7c(Oc8ccc(OC)cc8)cc(c2c37)C1=O)c64)C(=O)N(c1c(C(C)C)cccc1C(C)C)C5=O (configuration not stated)
In Cc1ccccc1
  photoluminescence quantum yield: 0.13

## Cc1ccc(C2=[N+]3C(=Cc4c(C)cc(C)n4[B-]3(F)F)c3ccccc32)[nH]1
In C1CCOC1
  photoluminescence quantum yield: 0.82
In CC#N
  photoluminescence quantum yield: 0.84
In CCCCCC
  photoluminescence quantum yield: 0.91
In CO
  photoluminescence quantum yield: 0.83
In Cc1ccccc1
  photoluminescence quantum yield: 0.83
In ClCCl
  photoluminescence quantum yield: 0.89

## CN(C)c1ccc(C#Cc2cc3ccc4cc(C#Cc5ccc(N(C)C)cc5)cc5ccc(c2)c3c45)cc1
In Cc1ccccc1
  photoluminescence quantum yield: 0.39

## Cc1nc2c(ccc3c2sc(/C=C/c2ccc(N(c4ccccc4)c4ccccc4)cc2)[n+]3C)s1
In ClC(Cl)Cl
  photoluminescence quantum yield: 0

## N#Cc1ccc(N/N=C/c2ccc3ccccc3c2O)cc1
In CO
  photoluminescence quantum yield: 0.13

## CC1(C)c2ccccc2N(c2ccccc2)c2ccc(-c3ccc(C(=O)c4ccc(-c5ccc6c(c5)C(C)(C)c5ccccc5N6c5ccccc5)cc4)cc3)cc21
[1]
  photoluminescence quantum yield: 0.53

## COC(=O)CNC(=O)c1nc2c(N(C)C)nc(N(C)C)nc2n1Cc1ccccc1
In C1COCCO1
  photoluminescence quantum yield: 0.95
In CC#N
  photoluminescence quantum yield: 0.95
In CO
  photoluminescence quantum yield: 0.9
In ClCCl
  photoluminescence quantum yield: 0.91

## CC1=C(c2ccc(N(c3ccccc3)c3ccccc3)cc2)C(C)=[N+]2C1=C(c1c(-c3ccccn3)nc3ccccn13)c1c(C)c(-c3ccc(N(c4ccccc4)c4ccccc4)cc3)c(C)n1[B-]2(F)F
In ClCCl
  photoluminescence quantum yield: 0.0078

## O=C1OC(=O)C2=C1[Se][C@]13C2=C[C@H](c2ccccc21)c1ccccc13
In ClCCl
  photoluminescence quantum yield: 0.62

## CC1=N/C(=C\c2ccccc2N)C(=O)N1C
In C1CCCCC1
  photoluminescence quantum yield: 0.002
In C1CCOC1
  photoluminescence quantum yield: 0.009
In CC#N
  photoluminescence quantum yield: 0.004
In CO
  photoluminescence quantum yield: 0.002
In CS(C)=O
  photoluminescence quantum yield: 0.007
In ClCCl
  photoluminescence quantum yield: 0.004
In O
  photoluminescence quantum yield: 0.001

## C(=C\c1ncc2ccccc2n1)/c1ccc(N(c2ccccc2)c2ccccc2)cc1
In ClCCl
  photoluminescence quantum yield: 0.61

## CCCCCCOc1cc(C=C2C(=O)c3ccccc3C2=O)c(OCCCCCC)cc1C=C1C(=O)c2ccccc2C1=O
In ClCCl
  photoluminescence quantum yield: 0.697

## c1ccc2cc3cnccc3cc2c1
In CCO
  photoluminescence quantum yield: 0.6

## CCOC(=O)c1ccc2c(c1)[nH]c1c3ccc(C(=O)OCC)cc3[se]c21
In CCCO
  photoluminescence quantum yield: 0.017

## C(/C=C/Nc1cccc2ccccc12)=[NH+]c1cccc2ccccc12
In CS(C)=O
  photoluminescence quantum yield: 0.01

## CC1(C)c2ccccc2N(c2ccc(-c3nnc(-c4cc(-c5ccccc5)c(-c5ccccc5)c(-c5ccccc5)c4-c4ccccc4)o3)cc2)c2ccccc21
In Cc1ccccc1
  photoluminescence quantum yield: 0.235
In c1ccc(-n2c(-c3c(-n4c5ccccc5c5ccccc54)cccc3-n3c4ccccc4c4ccccc43)nc3ccccc32)cc1
  photoluminescence quantum yield: 0.359

## CCN(CC)c1ccc2cc(-c3cc(SC)c(C#N)c(=O)o3)c(=O)oc2c1
In C1CCOC1
  photoluminescence quantum yield: 0.72
In CC#N
  photoluminescence quantum yield: 0.56
In CC(C)=O
  photoluminescence quantum yield: 0.67
In CCOC(C)=O
  photoluminescence quantum yield: 0.8
In CN(C)C=O
  photoluminescence quantum yield: 0.4
In CO
  photoluminescence quantum yield: 0.55
In CS(C)=O
  photoluminescence quantum yield: 0.55
In Cc1ccccc1
  photoluminescence quantum yield: 0.72
In ClC(Cl)Cl
  photoluminescence quantum yield: 0.66
In ClCCl
  photoluminescence quantum yield: 0.81

## CN(C)c1ccc(C2=C3C=C(c4ccc(C#N)cc4)S[C@]34c3ccccc3[C@H]2c2ccccc24)cc1
In ClCCl
  photoluminescence quantum yield: 0.76

## Clc1ccc(/C=C/c2ccc(-c3nc4c5cccnc5c5ncccc5c4[nH]3)cc2)cc1
In C1CCOC1
  photoluminescence quantum yield: 0.42
In CC#N
  photoluminescence quantum yield: 0.26
In CO
  photoluminescence quantum yield: 0.16
In ClCCl
  photoluminescence quantum yield: 0.34

## CCOCCOCCOC(=O)/C=C/C1=CC2=C(c3c(C)cc(C)cc3C)c3cc(/C=C/C(=O)OCCOCCOCC)cn3[B-](F)(F)[N+]2=C1
In ClCCl
  photoluminescence quantum yield: 0.34

## N#Cc1c(-n2nnc3c2-c2ccccc2CN(C(=O)CCN)c2ccccc2-3)n([C@H]2C[C@H](O)[C@@H](CO)O2)c2ncnc(N)c12
In CO
  photoluminescence quantum yield: 0.005

## CC1CC=C(c2ccc(-c3ccc(C=O)s3)s2)CC1 (configuration not stated)
In CCO
  photoluminescence quantum yield: 0.43

## CC/[NH+]=c1\cc2oc3cc(NCCOC(=O)C(NC(=O)OC(C)(C)C)C(C)C)c4ccccc4c3nc-2cc1C (configuration not stated)
In CCO
  photoluminescence quantum yield: 0.32
In O
  photoluminescence quantum yield: 0.26

## CCCC(=O)c1c2c(c(C(=O)CCC)c3c1OC(CC(=O)OC)(C(=O)O)O3)OCO2
In CC#N
  photoluminescence quantum yield: 0.25
In CCO
  photoluminescence quantum yield: 0.12
In CO
  photoluminescence quantum yield: 0.06
In O
  photoluminescence quantum yield: 0.02

## COc1ccc2c3c(c4ccc(OC)cc4c2c1)C(C)(C)c1ccccc1-3
In C1CCCCC1
  photoluminescence quantum yield: 0.19

## COCCOCCOCCOCC(COCCOCCOCCOC)Oc1cc(/C=C/c2ccc(/C=C(\C#N)c3ccccc3)cc2)c(OC(COCCOCCOCCOC)COCCOCCOCCOC)cc1/C=C/c1ccc(/C=C(\C#N)c2ccccc2)cc1
In ClCCl
  photoluminescence quantum yield: 0.72

## CCC1=C(C)C2=Cc3cscc3B(O)N2C1=O
In CC#N
  photoluminescence quantum yield: 0.97
In CCCCCC
  photoluminescence quantum yield: 0.18
In CO
  photoluminescence quantum yield: 0.35
In CS(C)=O
  photoluminescence quantum yield: 0.87
In ClC(Cl)Cl
  photoluminescence quantum yield: 0.2

## Cc1cccn2c1cc1c3ccccc3nc(-c3ccco3)c12
In CS(C)=O
  photoluminescence quantum yield: 0.42

## O=S(=O)(c1ccc(-c2ccc(-c3nc4c5ccccc5c5ccccc5c4n3-c3ccccc3)cc2)cc1)c1ccc(-c2ccc(-c3nc4c5ccccc5c5ccccc5c4n3-c3ccccc3)cc2)cc1
In C1CCOC1
  photoluminescence quantum yield: 0.847
In CC#N
  photoluminescence quantum yield: 0.579
In CC(C)=O
  photoluminescence quantum yield: 0.779
In CC(C)OC(C)C
  photoluminescence quantum yield: 0.81
In CCCCCC
  photoluminescence quantum yield: 0.676
In CCCCOCCCC
  photoluminescence quantum yield: 0.85
In CCN(CC)CC
  photoluminescence quantum yield: 0.102
In CCOC(C)=O
  photoluminescence quantum yield: 0.89
In CCOCC
  photoluminescence quantum yield: 0.992
In CN(C)C=O
  photoluminescence quantum yield: 0.775
In ClC(Cl)Cl
  photoluminescence quantum yield: 1
In ClCCl
  photoluminescence quantum yield: 0.824
In c1ccc2c(c1)c1ccccc1n2-c1ccc(-c2ccc(-n3c4ccccc4c4ccccc43)cc2)cc1
  photoluminescence quantum yield: 0.72

## COc1ccccc1C1=[N+]2C(=Nc3c(-c4ccccc4)cc(-c4ccccc4OC)n3[B-]2(F)F)C(c2ccccc2)=C1
In Cc1ccccc1
  photoluminescence quantum yield: 0.07

## Cc1cccc(Nc2ccccc2C(=O)O)c1C
In C1CCCCC1
  photoluminescence quantum yield: 0.0049
In C1CCOC1
  photoluminescence quantum yield: 0.0074
In C1COCCO1
  photoluminescence quantum yield: 0.0035
In CC#N
  photoluminescence quantum yield: 0.0013
In CCOC(C)=O
  photoluminescence quantum yield: 0.0032
In CN(C)C=O
  photoluminescence quantum yield: 0.0013

## CC1(C)CCc2c(c3ccccc3c3nc4ccccc4nc23)O1
In C1CCCCC1
  photoluminescence quantum yield: 0.05
In C1CCOC1
  photoluminescence quantum yield: 0.1
In CN(C)C=O
  photoluminescence quantum yield: 0.13
In CO
  photoluminescence quantum yield: 0.23
In ClC(Cl)Cl
  photoluminescence quantum yield: 0.17
In c1ccccc1
  photoluminescence quantum yield: 0.12

## c1ccc2c(c1)Oc1ccccc1N2c1ccc2c(c1)c1ccccc1n1c3ccccc3nc21
[1]
  photoluminescence quantum yield: 0.8

## COc1ccc(/C=C/C2=[O+][B-](F)(F)OC(/C=C/c3ccc(OC)cc3)=C2c2ccc(OC)cc2)cc1
In ClCCl
  photoluminescence quantum yield: 0.39

## c1ccc(-c2ccc(-c3nc(-n4c5ccccc5c5ccc6c7ccccc7n(-c7ccccc7)c6c54)nc(-n4c5ccccc5c5ccc6c7ccccc7n(-c7ccccc7)c6c54)n3)cc2)cc1
In Cc1ccccc1
  photoluminescence quantum yield: 0.1

## COCCC1=Cc2nc1ccc1[nH]c(cc1CCOC)c1nc(ccc3[nH]c2cc3CCO)C(CCOC)=C1
In Cc1ccccc1
  photoluminescence quantum yield: 0.32

## CC(C)[Si](C#Cc1c2ccccc2c(C#C[Si](C(C)C)(C(C)C)C(C)C)c2nc3c(ccc4cc5ccccc5cc43)nc12)(C(C)C)C(C)C
In CCCCCC
  photoluminescence quantum yield: 0.12

## CCCCCCCCOc1ccc2c3c(c4ccc(OCCCCCCCC)cc4c2c1)C(C)(C)c1ccccc1-3
In C1CCCCC1
  photoluminescence quantum yield: 0.24

## CC[N+]1(CC)CN2C(=N1)C(C(=O)O)=Cc1c2ccc2ccccc12
In O
  photoluminescence quantum yield: 0.711

## CCCCCCCCC1(CCCCCCCC)c2cc(-c3ccc(C(F)(F)F)cc3)ccc2-c2ccc(N(c3ccc(-n4c5ccccc5c5ccccc54)cc3)c3ccc4c(c3)C(CCCCCCCC)(CCCCCCCC)c3cc(-c5ccc(C(F)(F)F)cc5)ccc3-4)cc21
In C1CCOC1
  photoluminescence quantum yield: 0.61
In C1COCCO1
  photoluminescence quantum yield: 0.71
In CC#N
  photoluminescence quantum yield: 0.46
In CC(C)=O
  photoluminescence quantum yield: 0.51
In CCCCCC
  photoluminescence quantum yield: 0.6
In CCCCOCCCC
  photoluminescence quantum yield: 0.67
In CCN(CC)CC
  photoluminescence quantum yield: 0.52
In CCOC(C)=O
  photoluminescence quantum yield: 0.54
In CCOCC
  photoluminescence quantum yield: 0.76
In CN(C)C=O
  photoluminescence quantum yield: 0.52
In CS(C)=O
  photoluminescence quantum yield: 0.47
In Cc1ccccc1
  photoluminescence quantum yield: 0.67
In ClC(Cl)Cl
  photoluminescence quantum yield: 0.47
In ClCCl
  photoluminescence quantum yield: 0.57
In c1ccccc1
  photoluminescence quantum yield: 0.63

## COc1cc(/C=C/c2cc(OC)c(-c3nc(-c4ccccc4)c(-c4ccccc4)[nH]3)cc2OC)c(OC)cc1/C=C/c1cc(OC)c(-c2nc(-c3ccccc3)c(-c3ccccc3)[nH]2)cc1OC
In C1CCOC1
  photoluminescence quantum yield: 0.54
In CC#N
  photoluminescence quantum yield: 0.24
In CN(C)C=O
  photoluminescence quantum yield: 0.42
In Cc1ccccc1
  photoluminescence quantum yield: 0.63

## CCCCCCCCc1ccc(-n2c3c4ccccc4nnc3c3c2c2nnc4ccccc4c2n3-c2ccc(CCCCCCCC)cc2)cc1
In Cc1ccccc1
  photoluminescence quantum yield: 0

## COC1=[N+]2C(=C(c3ccccc3)c3ccc(OC)n3[B-]2(F)F)C=C1SC#N
In CC#N
  photoluminescence quantum yield: 0.11
In CCCCCC
  photoluminescence quantum yield: 0.15
In CCOC(C)=O
  photoluminescence quantum yield: 0.14
In CO
  photoluminescence quantum yield: 0.14
In ClCCl
  photoluminescence quantum yield: 0.19

## COc1ccc(C(=O)c2c(C)c3ccc4cccc5c6cccc7ccc2c(c76)c3c45)cc1
In ClCCl
  photoluminescence quantum yield: 0.018

## O=[N+]([O-])c1ccc(C#Cc2ccccc2C#Cc2ccc([N+](=O)[O-])cc2)cc1
In CC#N
  photoluminescence quantum yield: 0

## N#C/C(=C/Nc1ccc(C#N)cc1)c1nc(-c2ccccc2)cs1
In CC#N
  photoluminescence quantum yield: 0
In CCO
  photoluminescence quantum yield: 0.0001
In CN(C)C=O
  photoluminescence quantum yield: 0.0001
In Cc1ccccc1
  photoluminescence quantum yield: 0.0001
In ClCCl
  photoluminescence quantum yield: 0.0001

## Cc1cc2oc3ccccc3c2c2[nH]c3ccccc3c12
In ClCCl
  photoluminescence quantum yield: 0.485

## COc1ccc2ncccc2c1
In CC#N
  photoluminescence quantum yield: 0.071
In CCCC#N
  photoluminescence quantum yield: 0.075
In Cc1ccccc1
  photoluminescence quantum yield: 0.014
